# Laboratory results published in patent US9012200B2, “Composition of bacterial strains, bioremediation mixture and use of this composition for the removal of contaminants from the soil and the method for purifying the soil contaminants” (priority 2012, dated 2015).
# Tests used:
# [1] = test system: investigated strains of bacteria; type: cell-based
# [2] = test system: model strain Escherichia coli; details: according to Spain, 2003; cited from earlier work
# [3] = test system: Pseudomonas sp. strain 3G; type: cell-based; details: 24 h
# [4] = test system: Stenotrophomonas sp. strain 3N; type: cell-based
# [5] = test system: Brevundimonas sp. strain 2N; type: cell-based
# [6] = test system: Achromobacter sp. strain 4P; type: cell-based
# [7] = test system: Stenotrophomonas sp. strain 2L; type: cell-based
# [8] = test system: Brevundimonas sp. strain 5N; type: cell-based
# [9] = test system: Stenotrophomonas sp. strain 5L; type: cell-based
# [10] = test system: Arthrobacter sp. strain 1N; type: cell-based
# [11] = test system: Pseudomonas sp. strain 4G; type: cell-based; details: 24 h
# [12] = test system: Stenotrophomonas sp. strain 6L; type: cell-based
# [13] = test system: Brevundimonas sp. strain 6N; type: cell-based
# [14] = test system: Brevundimonas sp. strain 5N; experiment: Antibiotic MIC by E-test; type: cell-based; details: 24 h
# Experimental: (§1) A disc diffusion method was performed to determine the susceptibility of bacteria to the selected antibiotics. We used discs soaked with the antibiotic of a well-defined concentration (BioMerioux) (Table 2) and the minimal inhibitory concentration test was carried out, using E-tests (Oxoid) (Table 3).
# (§2) In the next stage of the research, MIC values of a given antibiotic for the investigated strains were determined, meaning the lowest concentration of the drug, expressed in mg/L, determined in vitro, which inhibits the growth of bacteria at a defined inoculum density, within a given time (Hryniewicz et at, 2001). These studies allow for the closer determination of the degree of susceptibility of bacteria to the applied antibiotics.
# (§3) A bacterial suspension was evenly distributed on dishes with ready-to-use MHA medium (Oxoid), and then plastic testing strips (E-tests) soaked with an antibiotic with a concentration gradient were placed thereon. The dishes were incubated at 25-30° C. for 24 h, and the test results were read after this time.
# (§4) The intersection of elliptical zone of inhibition, which appeared around the test strip, with the value indicator on the gradient scale of the strip, determined the lowest concentration of antibiotic, inhibiting growth of the microorganism (MIC). Similarly as in the disc diffusion method, the obtained results were compared with the guidelines contained in the relevant standards.
# [15] = test system: Stenotrophomonas sp. strain 6L; experiment: Antibiotic MIC by E-test; type: cell-based; details: 24 h
# Experimental: as §1, §2, §3, §4
# [16] = test system: Pseudomonas sp. strain 3G; experiment: Antibiotic MIC by E-test; type: cell-based; details: 24 h
# Experimental: as §1, §2, §3, §4
# [17] = test system: Arthrobacter sp. strain 1N; experiment: Antibiotic MIC by E-test; type: cell-based; details: strain 1N, E-test, 24 h
# Experimental: as §1, §2, §3, §4
# [18] = test system: Pseudomonas sp. strain 4G; experiment: Antibiotic MIC by E-test; type: cell-based; details: 24 h
# Experimental: as §1, §2, §3, §4
# [19] = test system: Stenotrophomonas sp. strain 2L; experiment: Antibiotic MIC by E-test; type: cell-based; details: 24 h
# Experimental: as §1, §2, §3, §4
# [20] = test system: Achromobacter sp. strain 4P; experiment: Antibiotic MIC by E-test; type: cell-based; details: strain 4P, E-test, 24 h
# Experimental: as §1, §2, §3, §4
# [21] = test system: Brevundimonas sp. strain 2N; experiment: Antibiotic MIC by E-test; type: cell-based; details: 24 h
# Experimental: as §1, §2, §3, §4
# [22] = test system: Stenotrophomonas sp. strain 5L; experiment: Antibiotic MIC by E-test; type: cell-based; details: 24 h
# Experimental: as §1, §2, §3, §4
# [23] = test system: Brevundimonas sp. strain 6N; experiment: Antibiotic MIC by E-test; type: cell-based; details: 24 h
# Experimental: as §1, §2, §3, §4
# [24] = test system: Stenotrophomonas sp. strain 3N; experiment: Antibiotic MIC by E-test; type: cell-based; details: 24 h
# Experimental: as §1, §2, §3, §4
# [25] = test system: Brevundimonas sp. strain 5N; experiment: Disc diffusion antibiotic susceptibility; type: cell-based; details: 24 h
# Experimental: as §1
# (§5) A McFarland's 0.5 inoculum was prepared from each strain's culture, using a densitometer (EMO). Then, using sterile cotton swabs, the suspension of bacterial cells was spread on dishes with ready-to-use MHA medium (Oxoid), and after 15 minutes, discs soaked with antibiotics at defined concentrations were placed on them.
# (§6) The dishes were incubated at 25-30° C., and the results were read after 24 and 48 hours. The measure of susceptibility of a tested strain to a given antibiotic was the size of the inhibition zone which formed around the disc soaked with the antibiotic. The results read (sizes of zones measured in mm) were compared with the data contained in the European Committee on Antimicrobial Susceptibility Testing (EUCAST) standards from 2010 (Table 4).
# (§7) The measure of susceptibility of the tested bacterial strain to a given antibiotic was the size of the inhibition zone which formed around the disc (Table 5).
# [26] = test system: Stenotrophomonas sp. strain 6L; experiment: Disc diffusion antibiotic susceptibility; type: cell-based; details: 24 h
# Experimental: as §1, §5, §6, §7
# [27] = test system: Pseudomonas sp. strain 3G; experiment: Disc diffusion antibiotic susceptibility; type: cell-based
# Experimental: as §1, §5, §6, §7
# [28] = test system: Arthrobacter sp. strain 1N; experiment: Disc diffusion antibiotic susceptibility; type: cell-based
# Experimental: as §1, §5, §6, §7
# [29] = test system: Pseudomonas sp. strain 4G; experiment: Disc diffusion antibiotic susceptibility; type: cell-based; details: 24 h
# Experimental: as §1, §5, §6, §7
# [30] = test system: Stenotrophomonas sp. strain 2L; experiment: Disc diffusion antibiotic susceptibility; type: cell-based
# Experimental: as §1, §5, §6, §7
# [31] = test system: Achromobacter sp. strain 4P; experiment: Disc diffusion antibiotic susceptibility; type: cell-based
# Experimental: as §1, §5, §6, §7
# [32] = test system: Brevundimonas sp. strain 2N; experiment: Disc diffusion antibiotic susceptibility; type: cell-based
# Experimental: as §1, §5, §6, §7
# [33] = test system: Stenotrophomonas sp. strain 5L; experiment: Disc diffusion antibiotic susceptibility; type: cell-based; details: 24 h
# Experimental: as §1, §5, §6, §7
# [34] = test system: Brevundimonas sp. strain 6N; experiment: Disc diffusion antibiotic susceptibility; type: cell-based
# Experimental: as §1, §5, §6, §7
# [35] = test system: Stenotrophomonas sp. strain 3N; experiment: Disc diffusion antibiotic susceptibility; type: cell-based
# Experimental: as §1, §5, §6, §7
# [36] = Brevundimonas, read-out: MIC threshold values for a given antibiotic
# [37] = Stenotrophomonas, read-out: MIC threshold values for a given antibiotic
# [38] = Pseudomonas, read-out: MIC threshold values for a given antibiotic
compound,measurement,setting,value
"[K+].[K+].[O]=[Cr](=[O])([O-])[O][Cr](=[O])(=[O])[O-] [Cr(VI), Potassium dichromate]",Susceptibility of the investigated strains to the heavy metal,[1],resistant
same,MIC,[2],0.2 mM/L
"O=S(=O)([O-])[O-].[Zn+2] [Zn(II), Zinc sulphate]",MIC threshold values of heavy metals,[3],4 mM/L
same,MIC threshold values of heavy metals,[4],3(4) mM/L
same,MIC threshold values of heavy metals,[5],3(4) mM/L
same,MIC threshold values of heavy metals,[6],3(5) mM/L
same,MIC threshold values of heavy metals,[7],3(4) mM/L
same,MIC threshold values of heavy metals,[8],2(4) mM/L
same,Susceptibility of the investigated strains to the heavy metal,[1],resistant
same,MIC threshold values of heavy metals,[9],4(5) mM/L
same,MIC threshold values of heavy metals,[10],4 mM/L
same,MIC threshold values of heavy metals,[11],4 mM/L
same,MIC threshold values of heavy metals,[12],4(5) mM/L
same,MIC threshold values of heavy metals,[13],2(3) mM/L
same,MIC,[2],1 mM/L
gentamicin [CN],MIC threshold values for a given antibiotic,[14],4 µg/mL
same,MIC threshold values for a given antibiotic,[15],256 µg/mL
same,MIC threshold values for a given antibiotic,[16],≧256 μg/ml
same,MIC threshold values for a given antibiotic,[17],8 µg/mL
same,MIC threshold values for a given antibiotic,[18],≧256 μg/ml
same,MIC threshold values for a given antibiotic,[19],4 µg/mL
same,MIC threshold values for a given antibiotic,[20],4 µg/mL
same,MIC threshold values for a given antibiotic,[21],8 µg/mL
same,MIC threshold values for a given antibiotic,[22],8 µg/mL
same,MIC threshold values for a given antibiotic,[23],8 µg/mL
same,MIC threshold values for a given antibiotic,[24],8 µg/mL
same,Size of the growth inhibition zone,[25],24 mm
same,Size of the growth inhibition zone,[26],0 mm
same,Size of the growth inhibition zone,[27]; 24 h,22 mm
same,Size of the growth inhibition zone,[27]; 48 h,20 mm
same,Size of the growth inhibition zone,[28]; 24 h,23 mm
same,Size of the growth inhibition zone,[28]; 48 h,18 mm
same,Size of the growth inhibition zone,[29],0 mm
same,Size of the growth inhibition zone,[30]; 24 h,24 mm
same,Size of the growth inhibition zone,[30]; 48 h,19 mm
same,Size of the growth inhibition zone,[31]; 24 h,22 mm
same,Size of the growth inhibition zone,[31]; 48 h,21 mm
same,Size of the growth inhibition zone,[32]; 24 h,24 mm
same,Size of the growth inhibition zone,[32]; 48 h,21 mm
same,Size of the growth inhibition zone,[33],22 mm
same,Size of the growth inhibition zone,[34]; 24 h,23 mm
same,Size of the growth inhibition zone,[34]; 48 h,20 mm
same,Size of the growth inhibition zone,[35]; 24 h,25 mm
same,Size of the growth inhibition zone,[35]; 48 h,0 mm
"Cc1cc(NS(=O)(=O)c2ccc(N)cc2)no1 [RL, sulfamethoxazole]",MIC,[14]; [36],≥ 1020 µg/mL
same,MIC,[15]; [37],12 µg/mL
same,MIC,[16]; [38],≥ 1020 µg/mL
same,MIC,"[17]; Arthrobacter, read-out: MIC threshold values for a given antibiotic",12 µg/mL
same,MIC,[18]; [38],≥ 1020 µg/mL
same,MIC,[19]; [37],6 µg/mL
same,MIC,"[20]; Achromobacter, read-out: MIC threshold values for a given antibiotic",12 µg/mL
same,MIC,[21]; [36],12 µg/mL
same,MIC,[22]; [37],8 µg/mL
same,MIC,[23]; [36],≥ 1020 µg/mL
same,MIC,[24]; [37],12 µg/mL
same,Size of the growth inhibition zone,[25],0 mm
same,Size of the growth inhibition zone,[26],0 mm
same,Size of the growth inhibition zone,[27]; 24 h,0 mm
same,Size of the growth inhibition zone,[28]; 24 h,0 mm
same,Size of the growth inhibition zone,[29],0 mm
same,Size of the growth inhibition zone,[30]; 24 h,0 mm
same,Size of the growth inhibition zone,[31]; 24 h,0 mm
same,Size of the growth inhibition zone,[32]; 24 h,0 mm
same,Size of the growth inhibition zone,[33],0 mm
same,Size of the growth inhibition zone,[34]; 24 h,0 mm
same,Size of the growth inhibition zone,[35]; 24 h,0 mm
